Laboratory results taken from patent US20170334899A1, “AMINO-SUBSTITUTED ISOTHIAZOLES” (Bayer Pharma Aktiengesellschaft, priority 2014, published 2017).

Target: T1, catalytic domain of human Bub1 (amino acids 704-1085) (Homo sapiens, UniProt O43683)
T1 construct: catalytic domain of human Bub1 (amino acids 704-1085); His6 (N); made in house; host or cells: insect cells (Hi5)
Assay: Bub1 kinase assay (TR-FRET)
Assay type: biochemical
Conditions: 10 μM ATP, avg, read-out: Bub1 avg (IC50 [mol/l])
Summary of the method: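 Readout is the 665/620 nm TR-FRET ratio from anti-phosphoserine antibody, Eu-labelled anti-mouse IgG and streptavidin-XL665, scaled between no-enzyme and uninhibited controls. Reaction: 1 μM biotinylated peptide, 10 μM ATP, 60 min, 22 °C, after 15 min compound preincubation with His6-Bub1 (704-1085, insect-expressed, ~200 ng/ml).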

T1 sequence (O43683 704-1085): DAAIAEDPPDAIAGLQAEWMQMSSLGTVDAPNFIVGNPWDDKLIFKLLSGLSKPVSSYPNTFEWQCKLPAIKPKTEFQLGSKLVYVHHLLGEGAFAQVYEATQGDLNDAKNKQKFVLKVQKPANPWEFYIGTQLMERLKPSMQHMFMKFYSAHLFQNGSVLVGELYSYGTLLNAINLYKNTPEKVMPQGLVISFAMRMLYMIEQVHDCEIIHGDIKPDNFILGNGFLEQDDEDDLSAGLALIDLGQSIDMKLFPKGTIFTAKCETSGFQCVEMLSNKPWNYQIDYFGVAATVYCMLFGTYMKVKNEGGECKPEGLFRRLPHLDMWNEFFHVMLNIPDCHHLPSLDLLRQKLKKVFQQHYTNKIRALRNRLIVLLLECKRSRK

Row | IC50 | Compound
1 | > 20 µM | Cc1nsc(Nc2cnc(C(F)(F)F)cn2)c1C(=O)Nc1ccc(O[C@@H]2CCN(CC(F)(F)F)C2)nc1 [Example 380, 3-methyl-N-(6-{[(3R)-1-(2,2,2-trifluoroethyl)pyrrolidin-3-yl]oxy}pyridin-3-yl)-5-{[5-(trifluoromethyl)pyrazin-2-yl]amino}-1,2-thiazole-4-carboxamide]
2 | ≥ 20 µM | Cc1nsc(Nc2cnc3ccccc3n2)c1C(=O)Nc1ccc(OC2CCCN(C(=O)OC(C)(C)C)C2)nc1 (centres unmarked) [Example 31, tert-Butyl 3-{[5-({[3-methyl-5-(quinoxalin-2-ylamino)-1,2-thiazol-4-yl]carbonyl}-amino)pyridin-2-yl]oxy}piperidine-1-carboxylate]
3 | ≥ 20 µM | Cc1nsc(Nc2cnc(C(F)(F)F)cn2)c1C(=O)Nc1ccc(OCC2CCN(CC(F)(F)F)CC2)nc1 [Example 346, 3-methyl-N-(6-{[1-(2,2,2-trifluoroethyl)piperidin-4-yl]methoxy}pyridin-3-yl)-5-{[5-(trifluoromethyl)pyrazin-2-yl]amino}-1,2-thiazole-4-carboxamide]
4 | > 20 µM | Cc1nsc(Nc2cnc(C(F)(F)F)cn2)c1C(=O)Nc1ccc(O[C@H]2CCN(CCC(F)(F)F)C[C@@H]2F)nc1 [Example 364, N-(6-{[(3S,4S)-3-fluoro-1-(3,3,3-trifluoropropyl)piperidin-4-yl]oxy}pyridin-3-yl)-3-methyl-5-{[5-(trifluoromethyl)pyrazin-2-yl]amino}-1,2-thiazole-4-carboxamide]
5 | > 20 µM | Cc1nsc(Nc2cnc(C(F)(F)F)cn2)c1C(=O)Nc1ccc(N2CCN(CC(F)(F)F)CC2)cn1 [Example 373, 3-methyl-N-{5-[4-(2,2,2-trifluoroethyl)piperazin-1-yl]pyridin-2-yl}-5-{[5-(trifluoromethyl)pyrazin-2-yl]amino}-1,2-thiazole-4-carboxamide]
6 | > 20 µM | Cc1nsc(Nc2cnc(C(F)(F)F)cn2)c1C(=O)Nc1ccc(F)c(OC[C@@H]2CCN(CC(F)(F)F)C2)c1 [Example 339, N-(4-fluoro-3-{[(3R)-1-(2,2,2-trifluoroethyl)pyrrolidin-3-yl]methoxy}phenyl)-3-methyl-5-{[5-(trifluoromethyl)pyrazin-2-yl]amino}-1,2-thiazole-4-carboxamide]
7 | > 20 µM | Cc1nsc(Nc2cnc(C(F)(F)F)cn2)c1C(=O)Nc1ccc(O[C@H]2CCN(CC(F)F)C2)nc1 [Example 382, N-(6-{[(3S)-1-(2,2-difluoroethyl)pyrrolidin-3-yl]oxy}pyridin-3-yl)-3-methyl-5-{[5-(trifluoromethyl)pyrazin-2-yl]amino}-1,2-thiazole-4-carboxamide]
8 | ≥ 20 µM | Cc1nsc(Nc2ccc(C#N)cn2)c1C(=O)Nc1ccc(OC2CCN(CC(F)(F)F)CC2)nc1 [Example 30, 5-[(5-Cyanopyridin-2-yl)amino]-3-methyl-N-(6-{[1-(2,2,2-trifluoroethyl)piperidin-4-yl]oxy}pyridin-3-yl)-1,2-thiazole-4-carboxamide]
9 | > 20 µM | Cc1nsc(Nc2cnc(C(F)(F)F)cn2)c1C(=O)Nc1ccc(F)c(OC[C@H]2CCN(CCC(F)(F)F)C2)c1 [Example 399, N-(4-fluoro-3-{[(3S)-1-(3,3,3-trifluoropropyl)pyrrolidin-3-yl]methoxy}phenyl)-3-methyl-5-{[5-(trifluoromethyl)pyrazin-2-yl]amino}-1,2-thiazole-4-carboxamide]
10 | ≥ 20 µM | Cc1nsc(Nc2cnc(C(F)(F)F)cn2)c1C(=O)Nc1ccc(OC2CCCN(CC(F)(F)F)C2)nc1 (centres unmarked) [Example 331, 3-methyl-N-(6-{[1-(2,2,2-trifluoroethyl)piperidin-3-yl]oxy}pyridin-3-yl)-5-{[5-(trifluoromethyl)pyrazin-2-yl]amino}-1,2-thiazole-4-carboxamide]
11 | ≥ 20 µM | Cc1nsc(Nc2cnc(C(F)(F)F)cn2)c1C(=O)Nc1ccc(O[C@H]2CCN(CC(F)(F)F)C2)nc1 [Example 383, 3-methyl-N-(6-{[(3S)-1-(2,2,2-trifluoroethyl)pyrrolidin-3-yl]oxy}pyridin-3-yl)-5-{[5-(trifluoromethyl)pyrazin-2-yl]amino}-1,2-thiazole-4-carboxamide]
